In ChEMBL document CHEMBL3885881, “DrugMatrix”:

Species: Rattus norvegicus
Test: DrugMatrix - Regimen: Daily Repeat
Format: toxicity, organism-based, Sprague-Dawley
Set-up: regimen Daily Repeat, gender Male, age 6-8 weeks
Conditions: in vivo, po, route oral GAVAGE, […]; for POTASSIUM / SODIUM / TOTAL BILIRUBIN / TOTAL PROTEIN / URIC ACID / ALANINE AMINOTRANSFERASE / ALBUMIN / ALKALINE PHOSPHATASE / ASPARTATE AMINOTRANSFERASE / BLOOD UREA NITROGEN / CARBON DIOXIDE / CHLORIDE / CHOLESTEROL / CREATINE PHOSPHOKINASE / CREATININE / GLUCOSE / LACTATE DEHYDROGENASE / LIPASE / PHOSPHORUS: tissue Plasma; for ABSOLUTE BASOPHIL / ABSOLUTE EOSINOPHIL / ABSOLUTE LYMPHOCYTE / ABSOLUTE MONOCYTE / ABSOLUTE SEGMENTED NEUTROPHIL / BASOPHIL / EOSINOPHIL / ERYTHROCYTE COUNT / HEMATOCRIT / HEMOGLOBIN / LEUKOCYTE COUNT / LYMPHOCYTE / MEAN CORPUSCULAR HEMOGLOBIN / MEAN CORPUSCULAR HEMOGLOBIN CONCENTRATION / MEAN CORPUSCULAR VOLUME / MONOCYTE / NEUTROPHIL / NUCLEATED RED BLOOD CELLS / PLATELET COUNT: tissue Blood
[1] = 9 mg/kg, 72 h, dose level M1, time 3 day
[2] = 9 mg/kg, 120 h, dose level M1, time 5 day
[3] = 36 mg/kg, 72 h, dose level High, time 3 day
[4] = 36 mg/kg, 120 h, dose level High, time 5 day

**Q.** What does the source list for `CS(=O)(=O)OCCCCOS(C)(=O)=O` [BUSULFAN]?
**A.** POTASSIUM [1]: 6.13 MEQ/L; SODIUM [1]: 143.63 MEQ/L; TOTAL BILIRUBIN [1]: 0.13 mg/dL; TOTAL PROTEIN [1]: 5.73 G/DL; URIC ACID [1]: 1.27 mg/dL; ABSOLUTE BASOPHIL [2]: 0 CELLS/uL; ABSOLUTE EOSINOPHIL [2]: 0 CELLS/uL; ABSOLUTE LYMPHOCYTE [2]: 6323.33 CELLS/uL; ABSOLUTE MONOCYTE [2]: 60 CELLS/uL; ABSOLUTE SEGMENTED NEUTROPHIL [2]: 150 CELLS/uL; BASOPHIL [2]: 0%; EOSINOPHIL [2]: 0%; ERYTHROCYTE COUNT [2]: 6.03 x10E6/uL; HEMATOCRIT [2]: 36.67%; HEMOGLOBIN [2]: 14.47 G/DL; LEUKOCYTE COUNT [2]: 6.53 x10E3/uL; LYMPHOCYTE [2]: 97%; MEAN CORPUSCULAR HEMOGLOBIN [2]: 24.03 pg; MEAN CORPUSCULAR HEMOGLOBIN CONCENTRATION [2]: 39.43 G/DL; MEAN CORPUSCULAR VOLUME [2]: 60.83 fL; MONOCYTE [2]: 0.67%; NEUTROPHIL [2]: 2.33%; NUCLEATED RED BLOOD CELLS [2]: 0 /100WBC; PLATELET COUNT [2]: 1101.33 x10E3/uL; ALANINE AMINOTRANSFERASE [2]: 48.67 u/L; ALBUMIN [2]: 4.4 G/DL; ALKALINE PHOSPHATASE [2]: 322 u/L; ASPARTATE AMINOTRANSFERASE [2]: 84.67 u/L; BLOOD UREA NITROGEN [2]: 8.33 mg/dL; CARBON DIOXIDE [2]: 33 mmol/L; CHLORIDE [2]: 99.33 MEQ/L; CHOLESTEROL [2]: 81.67 mg/dL; CREATINE PHOSPHOKINASE [2]: 189.67 u/L; CREATININE [2]: 0.3 mg/dL; GLUCOSE [2]: 133.33 mg/dL; LACTATE DEHYDROGENASE [2]: 120 u/L; LIPASE [2]: 11.33 u/L; PHOSPHORUS [2]: 9.3 mg/dL; POTASSIUM [2]: 6.08 MEQ/L; SODIUM [2]: 145.27 MEQ/L; TOTAL BILIRUBIN [2]: 0.13 mg/dL; TOTAL PROTEIN [2]: 6.33 G/DL; URIC ACID [2]: 0.77 mg/dL; ABSOLUTE BASOPHIL [3]: 0 CELLS/uL; ABSOLUTE EOSINOPHIL [3]: 0 CELLS/uL; ABSOLUTE LYMPHOCYTE [3]: 7116 CELLS/uL; ABSOLUTE MONOCYTE [3]: 0 CELLS/uL; ABSOLUTE SEGMENTED NEUTROPHIL [3]: 417.33 CELLS/uL; BASOPHIL [3]: 0%; EOSINOPHIL [3]: 0%; ERYTHROCYTE COUNT [3]: 5.94 x10E6/uL; HEMATOCRIT [3]: 37.13%; HEMOGLOBIN [3]: 14.47 G/DL; LEUKOCYTE COUNT [3]: 7.53 x10E3/uL; LYMPHOCYTE [3]: 94.33%; MEAN CORPUSCULAR HEMOGLOBIN [3]: 24.5 pg; MEAN CORPUSCULAR HEMOGLOBIN CONCENTRATION [3]: 39.07 G/DL; MEAN CORPUSCULAR VOLUME [3]: 62.67 fL; MONOCYTE [3]: 0%; NEUTROPHIL [3]: 5.67%; NUCLEATED RED BLOOD CELLS [3]: 0 /100WBC; PLATELET COUNT [3]: 1000.33 x10E3/uL; ALANINE AMINOTRANSFERASE [3]: 45.33 u/L; ALBUMIN [3]: 4.4 G/DL; ALKALINE PHOSPHATASE [3]: 316.33 u/L; ASPARTATE AMINOTRANSFERASE [3]: 72.67 u/L; BLOOD UREA NITROGEN [3]: 12 mg/dL; CARBON DIOXIDE [3]: 33.33 mmol/L; CHLORIDE [3]: 101.5 MEQ/L; CHOLESTEROL [3]: 110.33 mg/dL; CREATINE PHOSPHOKINASE [3]: 312.33 u/L; CREATININE [3]: 0.1 mg/dL; GLUCOSE [3]: 170.33 mg/dL; LACTATE DEHYDROGENASE [3]: 86.33 u/L; LIPASE [3]: 12.33 u/L; PHOSPHORUS [3]: 10.73 mg/dL; POTASSIUM [3]: 5.47 MEQ/L; SODIUM [3]: 147.05 MEQ/L; TOTAL BILIRUBIN [3]: 0.17 mg/dL; TOTAL PROTEIN [3]: 6.3 G/DL; URIC ACID [3]: 0.6 mg/dL; ABSOLUTE BASOPHIL [4]: 0 CELLS/uL; ABSOLUTE EOSINOPHIL [4]: 0 CELLS/uL; ABSOLUTE LYMPHOCYTE [4]: 3639 CELLS/uL; ABSOLUTE MONOCYTE [4]: 0 CELLS/uL; ABSOLUTE SEGMENTED NEUTROPHIL [4]: 61 CELLS/uL; BASOPHIL [4]: 0%; EOSINOPHIL [4]: 0%; ERYTHROCYTE COUNT [4]: 6.14 x10E6/uL; HEMATOCRIT [4]: 38.4%; HEMOGLOBIN [4]: 14.8 G/DL; LEUKOCYTE COUNT [4]: 3.7 x10E3/uL; LYMPHOCYTE [4]: 98.5%; MEAN CORPUSCULAR HEMOGLOBIN [4]: 24.15 pg; MEAN CORPUSCULAR HEMOGLOBIN CONCENTRATION [4]: 38.6 G/DL; MEAN CORPUSCULAR VOLUME [4]: 62.55 fL; MONOCYTE [4]: 0%; NEUTROPHIL [4]: 1.5%; NUCLEATED RED BLOOD CELLS [4]: 0 /100WBC; PLATELET COUNT [4]: 1040 x10E3/uL; ALANINE AMINOTRANSFERASE [4]: 36.5 u/L; ALBUMIN [4]: 4.35 G/DL; ALKALINE PHOSPHATASE [4]: 322.5 u/L; ASPARTATE AMINOTRANSFERASE [4]: 72 u/L; BLOOD UREA NITROGEN [4]: 7 mg/dL; CARBON DIOXIDE [4]: 28 mmol/L; CHLORIDE [4]: 100 MEQ/L; CHOLESTEROL [4]: 78 mg/dL; CREATINE PHOSPHOKINASE [4]: 216 u/L; CREATININE [4]: 0.13 mg/dL; GLUCOSE [4]: 154 mg/dL; LACTATE DEHYDROGENASE [4]: 72 u/L; LIPASE [4]: 10.5 u/L; PHOSPHORUS [4]: 9.25 mg/dL; POTASSIUM [4]: 5.75 MEQ/L; SODIUM [4]: 145.2 MEQ/L; TOTAL BILIRUBIN [4]: 0.1 mg/dL; TOTAL PROTEIN [4]: 6.35 G/DL; URIC ACID [4]: 0.5 mg/dL
